Patent US20260199424A1, “METHODS AND COMPOSITIONS FOR IMPROVING VISUAL FUNCTION IN OCULAR DISEASES AND DISORDERS” (priority 2022, published 2026)
Where “and” joins values, the source holds several entries; their conditions need not be identical. Equal entries are not always repeated. Entries after “also recorded” stand apart in the source; their conditions may differ. Where two headings read alike, the source gives them in different places. No end group written: not given here.

Tests used:
IL18 = experiment: Retinal detachment study, cytokine change from administration to surgery: IL18; assay type: in vivo, human; conditions: for Percent Change (%) from time of administering ONL1204 to surgery IL18: individual patients
Procedure: (§1) During the study, ocular fluid samples were also collected at the time of study drug injection and at the time of vitrectomy. These samples were used for pharmacokinetic and pharmacodynamic analyses.
(§2) Patients were enrolled in ascending dose groups. […] Safety visits were conducted one day post-injection and as deemed necessary by the examining Investigator (at least 1 visit every 3 days) until Visit 3. At Visit 3 (3+ days post-injection, in accordance with standard of care) patients underwent surgical repair of their retinal detachment with vitrectomy (with or without scleral buckling) and gas or oil tamponade. At the time of surgery, an undiluted vitreous sample was collected for pharmacokinetic and pharmacodynamics analyses, and an aqueous sample was collected for pharmacodynamic analysis. Additional safety visits were targeted for and generally conducted one day post-surgery, 7 days (±3 days) post-surgery, 14 (±4 days) days post-surgery, and Weeks 6, 9, 12 (±7 days each), and Week 24 (±14 days; study exit).

male rabbit NaIO3 model = experiment: Sodium iodate (NaIO3) challenge study, lesion size (area of RPE depigmentation); assay type: in vivo; conditions: for lesion area versus negative control: NaIO3 challenge Day 4; for mean lesion size smaller compared to negative controls: NaIO3 challenge Day 59
Procedure: Animals were anesthetized with isoflurane vapors to effect. […] No reflux was noted on the dosing record.
Animals were anesthetized with isoflurane vapors to effect.
The resulting area was then measured.

ICAM1 = experiment: Retinal detachment study, cytokine change from administration to surgery: ICAM1; assay type: in vivo, human; conditions: for Percent Change (%) from time of administering ONL1204 to surgery ICAM1: individual patients
Procedure: as §1, §2

[1] = rabbit, in vivo
Procedure: Body weights were measured and recorded prior to first dose, approximately weekly (for surviving animals through Week 12), and prior to euthanasia. […] Ophthalmic examinations were performed using the Hackett-McDonald Scoring System on Days 0, 7, 14, 28, 90, 97, 151, and 168. Pharmacokinetic analyses were performed on the vitreous humor concentration data.
Seven animals received a repeat IVT dose at 2 mg/mL (0.1 mg/eye) on Day 90.
Vitreous humor, retina, and choroid were collected on days 1, 7, 14, 28, 42, 61, 90, 97, 151, and 168. Eyes were enucleated, snap frozen using liquid nitrogen, and kept on dry ice or frozen at −80° C. until dissected for collection of aqueous humor, vitreous humor, retina, choroid, iris-ciliary body (ICB), and lens.
To homogenize ocular tissue samples, weighed amounts of control bovine vitreous humor, retina, and choroid were homogenized in USA scientific impact resistant microtubes containing 2.8 mm ceramic beads. Unknown rabbit vitreous humor, retina, and choroid samples were homogenized in USA scientific impact resistant microtubes containing 2.8 mm ceramic beads. […]

[2] = test system: patients with progressing open angle glaucoma; experiment: Multi-dose study in progressing open-angle glaucoma, Humphrey Visual Field analysis; assay type: in vivo, human
Procedure: Visual function metrics were measured at over two screening time points, a baseline, and at about days 90, 177, 180, and 270. Measures for visual function included visual field analysis pre- and post-treatment with ONL1204.
Patients were part of the study for approximately 39 weeks (270 days). Randomization was be stratified by HVF mean deviation (−5.00 dB to >−10.00 dB and ≤−10.00 dB to −15.00 dB).
FIGS. 3-5 show study and fellow eye data for the changes in mean visual field analysis of clusters in sham, 50 ug, and 100 ug patients. The data represents mean data for each cluster (10 clusters per patient). […] Each cluster is denoted by a rate of change in sensitivity, in dB/yr. The Baseline sensitivity of each cluster is denoted in dB. Positive values indicate an improvement in visual field and/or improving rate of visual field change. FIGS. 6-8 show study and fellow eye data for the changes in mean visual field analysis (unclustered, point specific, pointwise) in sham, 50 ug, and 100 ug patients.

[3] = minipig, in vivo
Procedure: Seven animals received a repeat IVT dose at 2 mg/mL (0.1 mg/eye) on Day 90. […] Vitreous humor, retina, and choroid were collected on days 1, 7, 14, 28, and 88.

[4] = test system: patients having macular degeneration characterized by geographic atrophy (GA); experiment: Study in geographic atrophy (GA) patients, BCVA; assay type: in vivo, human; conditions: single IVT injection, doses 25 ug and 50 ug as printed
Procedure: Baseline best corrected visual acuity (BCVA) was measured prior to treatment with ONL1204.

MCP1 = experiment: Retinal detachment study, cytokine change from administration to surgery: MCP1; assay type: in vivo, human; conditions: for Percent Change (%) from time of administering ONL1204 to surgery MCP1: individual patients
Procedure: as §1, §2

IL1RA = experiment: Retinal detachment study, cytokine change from administration to surgery: IL1RA; assay type: in vivo, human; conditions: for Percent Change (%) from time of administering ONL1204 to surgery IL1RA: individual patients
Procedure: as §1, §2

[5] = test system: patients with retinal detachment; experiment: Retinal detachment study, adverse events; assay type: in vivo, human
Procedure: The primary objective was to determine the Maximum Tolerated Dose (MTD) of a peptide an amino acid sequence […] and the structure of Formula III (ONL1204) and select doses for further clinical studies. During the study, ocular fluid samples were also collected at the time of study drug injection and at the time of vitrectomy. These samples were used for pharmacokinetic and pharmacodynamic analyses.
as §2
Planned determinations of dose limiting toxicity included consideration of the following events: • 1.

[6] = test system: patients with retinal detachment; experiment: Retinal detachment study, best corrected visual acuity; assay type: in vivo, human; parameters: key to BCVA Snellen study eye baseline / BCVA Snellen study eye week 9: HM = hand motion; CF = counting fingers; conditions: for BCVA logMAR study eye week 6 / BCVA Snellen study eye week 6: week 6, individual patients; for BCVA logMAR study eye week 9 / BCVA Snellen study eye week 9: week 9, individual patients; for BCVA logMAR study eye week 24 / BCVA Snellen study eye week 24: week 24, individual patients
Procedure: as §1, §2
Therefore, a volume of 0.05 or 0.1 mL was injected into the study eye. Patient participation was approximately 24 weeks (6 months): a single injection treatment and 24 weeks of follow-up.

HHIYLGAVNYIY-NH2 [ONL1204]
Percent Change (%) from time of administering ONL1204 to surgery IL18 (IL18; 25 ug (dose per Table 1)): −60.5% and −22.5% and −50.8% | Percent Change (%) from time of administering ONL1204 to surgery IL18 (IL18; 50 ug (dose per Table 1)): 0% (2×) and −100% | Percent Change (%) from time of administering ONL1204 to surgery IL18 (IL18; 100 ug (dose per Table 1)): −33.7% and 0% and 66.0% | Percent Change (%) from time of administering ONL1204 to surgery IL18 (IL18; 200 ug (dose per Table 1)): 0% | mean change in IL18 from administration to surgery (IL18; all patients of Table 7): mean decrease | mean lesion size across challenge time points (male rabbit NaIO3 model; 25 ug and 100 ug per eye IVT Day 0): substantive reduction in mean lesion size | lesion area versus negative control (male rabbit NaIO3 model; 25 ug per eye IVT Day 0): significantly lower than negative control | mean lesion size smaller compared to negative controls (male rabbit NaIO3 model; 25 ug per eye IVT Day 0): 40% | lesion area versus negative control (male rabbit NaIO3 model; 100 ug per eye IVT Day 0): significantly lower than negative control | lesion size versus negative controls and 25 ug (male rabbit NaIO3 model; 100 ug per eye IVT Day 0, NaIO3 challenge Day 14): significantly smaller lesion size | lesion size versus negative control and 25 ug (male rabbit NaIO3 model; 100 ug per eye IVT Day 0, NaIO3 challenge Day 28): significantly smaller lesion size | mean lesion size smaller compared to negative controls (male rabbit NaIO3 model; 100 ug per eye IVT Day 0): 50% | Percent Change (%) from time of administering ONL1204 to surgery ICAM1 (ICAM1; 25 ug (dose per Table 1)): −82.4% and −42.7% and −86.2% | Percent Change (%) from time of administering ONL1204 to surgery ICAM1 (ICAM1; 50 ug (dose per Table 1)): 64.0% and −100% and 0% | Percent Change (%) from time of administering ONL1204 to surgery ICAM1 (ICAM1; 100 ug (dose per Table 1)): −43.9% and 24.9% and 22.7% | Percent Change (%) from time of administering ONL1204 to surgery ICAM1 (ICAM1; 200 ug (dose per Table 1)): 0% | mean change in ICAM from administration to surgery (ICAM1; all patients of Table 7): mean decrease | detection in retinal tissue and vitreous humor [1]: detected in retinal tissue as well as the vitreous humor after 168 days | detection in the vitreous humor [1]: detected in the vitreous humor across all time points analyzed | visual field outcomes as measured by Humphrey Visual Field (HVF) analysis ([2]; 50 ug and 100 ug, two IVT injections (day 0, day 90), compared to sham): improvement in visual field outcomes; also recorded: improvement in visual field was generally observed | visual field benefit in patients having lower baseline sensitivities ([2]; baseline sensitivity equal to or less than −5): benefits of ONL1204 treatment were also observed | detection in the vitreous humor [3]: detected in the vitreous humor across all time points analyzed | visual outcomes (visual acuity, BCVA) versus baseline [4]: improvement in visual outcomes | Percent Change (%) from time of administering ONL1204 to surgery MCP1 (MCP1; 25 ug (dose per Table 1)): −41.4% and −6.02% and −35.9% | Percent Change (%) from time of administering ONL1204 to surgery MCP1 (MCP1; 50 ug (dose per Table 1)): −3.12% and −48.4% and 11.6% | Percent Change (%) from time of administering ONL1204 to surgery MCP1 (MCP1; 100 ug (dose per Table 1)): −9.5% and 78.5% and 500% | Percent Change (%) from time of administering ONL1204 to surgery MCP1 (MCP1; 200 ug (dose per Table 1)): −2.4% | mean change in MCP1 from administration to surgery (MCP1; all patients of Table 7): mean decrease | Percent Change (%) from time of administering ONL1204 to surgery IL1RA (IL1RA; 25 ug (dose per Table 1)): −51.0% and −57.4% and −99.3% | Percent Change (%) from time of administering ONL1204 to surgery IL1RA (IL1RA; 50 ug (dose per Table 1)): −60.0% and −94.4% and −88.3% | Percent Change (%) from time of administering ONL1204 to surgery IL1RA (IL1RA; 100 ug (dose per Table 1)): 8.5% and −46.1% and −65.2% | Percent Change (%) from time of administering ONL1204 to surgery IL1RA (IL1RA; 200 ug (dose per Table 1)): −26.3% | mean change in IL1RA from administration to surgery (IL1RA; all patients of Table 7): mean decrease | severity of adverse events ([5]; 25 ug and 50 ug, study procedure or surgery related): Most were mild | patients experiencing adverse events ([5]; 4 patients 25 ug and 4 patients 50 ug, single IVT): 7 out of 8 | total adverse events ([5]; 8 patients, 25 ug and 50 ug): 20 | BCVA logMAR study eye week 6 ([6]; 25 ug (dose per Table 1)): 0.34 logMAR and 0.18 logMAR and 0.82 logMAR (2×) | BCVA logMAR study eye week 9 ([6]; 25 ug (dose per Table 1)): 0.14 logMAR and 0.12 logMAR and 0.64 logMAR and 0.78 logMAR | BCVA logMAR study eye week 24 ([6]; 25 ug (dose per Table 1)): 0.5 logMAR and 0.2 logMAR and 0.68 logMAR and 0.7 logMAR | BCVA Snellen study eye baseline ([6]; 25 ug single IVT, baseline, individual patients): 20/160 and 20/100 and 20/200 and HM | BCVA Snellen study eye week 6 ([6]; 25 ug single IVT): 20/40 and 20/32 and 20/125 (2×) | BCVA Snellen study eye week 9 ([6]; 25 ug single IVT): 20/25 (2×) and 20/100 and 20/125 | BCVA Snellen study eye week 24 ([6]; 25 ug single IVT): 20/60 and 20/32 and 20/100 (2×) | BCVA logMAR study eye baseline ([6]; 50 ug (dose per Table 1), baseline, individual patients): 3 logMAR and 2 logMAR (3×) | BCVA logMAR study eye week 6 ([6]; 50 ug (dose per Table 1)): 0.46 logMAR and 0.38 logMAR (2×) and 0.52 logMAR | BCVA logMAR study eye week 9 ([6]; 50 ug (dose per Table 1)): 0.6 logMAR and 0.56 logMAR and 0.34 logMAR | BCVA logMAR study eye week 24 ([6]; 50 ug (dose per Table 1)): 0.76 logMAR and 0.2 logMAR and 0.64 logMAR and 0.34 logMAR | BCVA Snellen study eye baseline ([6]; 50 ug single IVT, baseline, individual patients): HM and CF (3×) | BCVA Snellen study eye week 6 ([6]; 50 ug single IVT): 20/50 (2×) and 20/80 | BCVA Snellen study eye week 9 ([6]; 50 ug single IVT): 20/80 (2×) and 20/50 | BCVA Snellen study eye week 24 ([6]; 50 ug single IVT): 20/125 and 20/32 and 20/80 and 20/50 | BCVA logMAR study eye week 6 ([6]; 100 ug (dose per Table 1)): 0.8 logMAR and 0.7 logMAR and 1 logMAR and 1.6 logMAR | BCVA logMAR study eye week 24 ([6]; 100 ug (dose per Table 1)): 0.5 logMAR and 0.7 logMAR and 1.3 logMAR and 0.6 logMAR | BCVA Snellen study eye baseline ([6]; 100 ug single IVT, baseline, individual patients): HM (2×) and 20/100 and 20/200 | BCVA Snellen study eye week 6 ([6]; 100 ug single IVT): 20/125 and 20/100 and 20/200 and 20/800 | BCVA Snellen study eye week 9 ([6]; 100 ug single IVT): 20/200 and 20/80 and HM and 20/400 | BCVA Snellen study eye week 24 ([6]; 100 ug single IVT): 20/63 and 20/100 and 20/400 and 20/80 | BCVA logMAR study eye week 6 ([6]; 200 ug (dose per Table 1)): 0.4 logMAR and 0.7 logMAR | BCVA logMAR study eye week 9 ([6]; 200 ug (dose per Table 1)): 0.36 logMAR and 0.6 logMAR | BCVA logMAR study eye week 24 ([6]; 200 ug (dose per Table 1)): 0.2 logMAR | BCVA Snellen study eye baseline ([6]; 200 ug single IVT, baseline, individual patients): 20/160 and HM | BCVA Snellen study eye week 6 ([6]; 200 ug single IVT): 20/50 and 20/100 | BCVA Snellen study eye week 9 ([6]; 200 ug single IVT): 20/40 and 20/80 | BCVA Snellen study eye week 24 ([6]; 200 ug single IVT): 20/32 | summary statistics for all patients, mean (BCVA logMAR), Week 9 ([6]; all doses, n 13, week 9): 0.78 | summary statistics for all patients, mean (BCVA logMAR), Week 24 ([6]; all doses, n 13, week 24): 0.56 | summary statistics for all patients, mean (BCVA logMAR), Baseline ([6]; all doses, n 14, baseline): 1.86 | summary statistics for all patients, mean (BCVA logMAR), Week 6 ([6]; all doses, n 14, week 6): 0.65 | visual outcomes (visual acuity) ([6]; all patients receiving 25 ug and 50 ug): improvement in visual outcomes
